{"source": "paper PMC10284550", "about": "“Accelerating drug target inhibitor discovery with a deep generative foundation model” (Science Advances, 2023)", "target": "SARS-CoV-2 spike glycoprotein ectodomain (Severe acute respiratory syndrome coronavirus 2, UniProt P0DTC2, K986P/R682G/R683S/R685S/V987P)", "assay_type": "binding", "conditions": "pH 7.5", "note": "“Also recorded” adds a separate entry of the source.", "data": [{"smiles": "C#CCN1CCC(CCNc2ccnc3ccccc23)CC1", "note": "[GEN727]", "values": [{"measurement": "Effect on stability of the spike (thermofluor)", "result": "appeared to reduce the speed of the transition of the spike to a less stable form; also recorded: somewhat destabilized the spike"}]}]}
